Experimental data taken from ChEMBL document CHEMBL4619813, “Virtual Screening for Ligand Discovery at the σ1 Receptor” (ACS Med Chem Lett, 2020).

Key:
[1] = target: Sigma non-opioid intracellular receptor 1 (Homo sapiens, UniProt Q99720); assay: Displacement of [3H](+)-pentazocine from recombinant sigma 1 receptor (unknown origin) expressed in baculovirus infected Sf9 cell membranes after 1.5 hrs by scintillation counting analysis
[2] = target: Sigma intracellular receptor 2 (Homo sapiens, UniProt Q5BJF2); assay: Displacement of [3H](+)-DTG from recombinant sigma 2 receptor (unknown origin) expressed in baculovirus infected Sf9 cell membranes after 1.5 hrs by scintillation counting analysis
Sigma intracellular receptor 2, sequence (Q5BJF2 whole entry): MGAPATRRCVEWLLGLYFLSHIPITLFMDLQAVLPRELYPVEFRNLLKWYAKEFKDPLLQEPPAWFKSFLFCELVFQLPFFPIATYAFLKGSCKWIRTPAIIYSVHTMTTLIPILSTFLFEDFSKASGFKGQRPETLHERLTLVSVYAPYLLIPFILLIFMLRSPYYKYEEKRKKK

[3] = Selectivity ratio of Ki for displacement of [3H](+)-DTG from recombinant sigma 2 receptor (unknown origin) expressed in baculovirus infected Sf9 cell membranes to Ki for displacement of [3H](+)-pentazocine from recombinant sigma 1 receptor (unknown origin) expressed in baculovirus infected Sf9 cell membranes; conditions: Homo sapiens

Sigma non-opioid intracellular receptor 1, sequence (Q99720 whole entry): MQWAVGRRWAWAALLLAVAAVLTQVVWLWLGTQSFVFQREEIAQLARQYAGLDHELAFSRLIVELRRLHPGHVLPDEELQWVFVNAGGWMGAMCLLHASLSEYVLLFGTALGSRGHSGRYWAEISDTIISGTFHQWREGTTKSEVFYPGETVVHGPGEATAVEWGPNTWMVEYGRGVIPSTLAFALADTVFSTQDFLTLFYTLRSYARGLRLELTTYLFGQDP

Compound | Ki [1] [nM] | Ki [2] [nM] | Ratio Ki [3] | Kd [2] [nM] | Kd [1] [nM]
FC(F)(F)c1cccc(-c2ccc(CNCc3cccnc3)o2)c1 | 191 |  |  |  | 
OC1COCCC1NC1CCN(c2ccc(C(F)(F)F)cn2)CC1 (stereo not given) | 18 | 15 | 0.8 |  | 
NC(Cc1ccccc1)C(=O)N1CCN(c2ccc3nccn3n2)CC1 (stereo not given) |  |  |  | > 1000 | > 1000
NC(=O)c1cccc(CNC2CCN(c3ccc(F)c(Cl)c3)C2)c1 (stereo not given) | 220 | 250 | 1.1 |  | 
Cc1c(C(=O)NC(CN(C)C)c2ccccc2)cnn1-c1ccc(F)cc1 (stereo not given) |  |  |  | > 1000 | > 1000
FC(F)(F)c1cccc(N2CCC(/N=C/c3ccc(Br)cc3)N2)c1 (stereo not given) |  |  |  | > 1000 | > 1000
Fc1ccc(CN2CCCN(C(=S)Nc3cc(F)cc(F)c3)C2)cc1 | 23 | 949 | 41.3 |  | 
Cc1nn(CCO)cc1CN(C)Cc1csc(-c2ccccc2)n1 | 127 | 2370 | 18.7 |  | 
CC(CCc1c[nH]c2ccccc12)NC1CCN(C(=O)C(C)C)CC1 (stereo not given) |  |  |  | > 1000 | > 1000
O=C(c1ccc(C(F)(F)F)cc1)N1CCN(Cc2ccccc2)CC1 | 915 |  |  |  | 
Cc1[nH]c2cc(C(F)(F)F)ccc2c(=O)c1CN(C)Cc1ccccc1 | 89 | 2950 | 33.2 |  | 
Cc1nn(-c2ccccc2Cl)c(Cl)c1CNCc1cc(F)cc(F)c1 | 164 | 985 | 6 |  | 
O=C(c1c[nH]c2ccccc12)N1CCC(N2CCc3ccccc3C2)C1 (stereo not given) |  |  |  | > 1000 | > 1000
